{
  "source": "ChEMBL document CHEMBL1123592",
  "about": "“Cluster significance analysis contrasted with three other quantitative structure-activity relationship methods” (J Med Chem, 1987)",
  "key": {"[1]": {"experiment": "Partition coefficient (logP)", "type": "physicochemical", "conditions": "octanol/water"}, "[2]": {"experiment": "In vitro antibacterial activity was determined", "type": "functional"}, "[3]": {"experiment": "Dissociation constant was determined", "type": "physicochemical"}, "[4]": {"experiment": "In vitro antibacterial activity was determined; antibacterial potency is less than 50% of that of lasalocid", "type": "functional"}},
  "data": [
    {"compound": "CC[C@@H](C(=O)[C@@H](C)[C@@H](O)[C@H](C)CCc1c(I)cc(C)c(O)c1C(=O)O)[C@H]1O[C@](CC)([C@H]2CC[C@](O)(CC)[C@H](C)O2)C[C@@H]1C", "note": "[IODOLASALOCID]", "values": [
      {"measurement": "logP", "setting": "[1]", "result": 3.19},
      {"measurement": "Activity", "setting": "[2]", "result": 1},
      {"measurement": "pKa", "setting": "[3]", "result": 3.9}
    ]},
    {"compound": "CC[C@@H](C(=O)[C@@H](C)[C@@H](O)[C@H](C)CCc1c(/N=C/c2ccccc2)cc(C)c(O)c1C(=O)O)[C@H]1O[C@](CC)([C@H]2CC[C@](O)(CC)[C@H](C)O2)C[C@@H]1C", "values": [
      {"measurement": "logP", "setting": "[1]", "result": 0.86},
      {"measurement": "Activity", "setting": "[4]", "result": 0}
    ]},
    {"compound": "CC[C@@H](C(=O)[C@@H](C)[C@@H](O)[C@H](C)CCc1c(Br)cc(C)c(O)c1C(=O)O)[C@H]1O[C@](CC)([C@H]2CC[C@](O)(CC)[C@H](C)O2)C[C@@H]1C", "note": "[BROMOLASALOCID]", "values": [
      {"measurement": "logP", "setting": "[1]", "result": 3.25},
      {"measurement": "Activity", "setting": "[2]", "result": 1},
      {"measurement": "pKa", "setting": "[3]", "result": 3.9}
    ]},
    {"compound": "CCCCC(=O)Oc1c(C)ccc(CC[C@@H](C)[C@H](O)[C@H](C)C(=O)[C@H](CC)[C@H]2O[C@](CC)([C@H]3CC[C@](O)(CC)[C@H](C)O3)C[C@@H]2C)c1C(=O)O", "values": [
      {"measurement": "logP", "setting": "[1]", "result": 2.08},
      {"measurement": "Activity", "setting": "[4]", "result": 0}
    ]},
    {"compound": "CC[C@@H](C(=O)[C@@H](C)[C@@H](O)[C@H](C)CCc1ccc(C)c(O)c1C(=O)O)[C@H]1O[C@](CC)([C@H]2CC[C@](O)(CC)[C@H](C)O2)C[C@@H]1C", "note": "[LASALOCID]", "values": [
      {"measurement": "logP", "setting": "[1]", "result": 2.83},
      {"measurement": "Activity", "setting": "[2]", "result": 1},
      {"measurement": "pKa", "setting": "[3]", "result": 4.4}
    ]},
    {"compound": "CC[C@@H](C(=O)[C@@H](C)[C@@H](O)[C@H](C)CCc1c([N+](=O)[O-])cc(C)c(O)c1C(=O)O)[C@H]1O[C@](CC)([C@H]2CC[C@](O)(CC)[C@H](C)O2)C[C@@H]1C", "values": [
      {"measurement": "logP", "setting": "[1]", "result": 2.46},
      {"measurement": "Activity", "setting": "[4]", "result": 0},
      {"measurement": "pKa", "setting": "[3]", "result": 2.4}
    ]},
    {"compound": "CC[C@@H](C(=O)[C@@H](C)[C@@H](O)[C@H](C)CCc1c([N+]#N)cc(C)c(O)c1C(=O)O)[C@H]1O[C@](CC)([C@H]2CC[C@](O)(CC)[C@H](C)O2)C[C@@H]1C", "note": "[DIAZOLASALOCID]", "values": [
      {"measurement": "Activity", "setting": "[4]", "result": 0},
      {"measurement": "pKa", "setting": "[3]", "result": 6.6}
    ]},
    {"compound": "CC[C@@H](C(=O)[C@@H](C)[C@@H](O)[C@H](C)CCc1ccc(C)c(OC(=O)c2ccc(Br)cc2)c1C(=O)O)[C@H]1O[C@](CC)([C@H]2CC[C@](O)(CC)[C@H](C)O2)C[C@@H]1C", "values": [
      {"measurement": "logP", "setting": "[1]", "result": 3.48},
      {"measurement": "Activity", "setting": "[4]", "result": 0}
    ]},
    {"compound": "CCCCCCCC(=O)Oc1c(C)ccc(CC[C@@H](C)[C@H](O)[C@H](C)C(=O)[C@H](CC)[C@H]2O[C@](CC)([C@H]3CC[C@](O)(CC)[C@H](C)O3)C[C@@H]2C)c1C(=O)O", "values": [
      {"measurement": "logP", "setting": "[1]", "result": 2.21},
      {"measurement": "Activity", "setting": "[4]", "result": 0}
    ]},
    {"compound": "CCCCCCCCCC(=O)Oc1c(C)ccc(CC[C@@H](C)[C@H](O)[C@H](C)C(=O)[C@H](CC)[C@H]2O[C@](CC)([C@H]3CC[C@](O)(CC)[C@H](C)O3)C[C@@H]2C)c1C(=O)O", "values": [
      {"measurement": "logP", "setting": "[1]", "result": 2.75},
      {"measurement": "Activity", "setting": "[4]", "result": 0}
    ]},
    {"compound": "CC[C@@H](C(=O)[C@@H](C)[C@@H](O)[C@H](C)CCc1c(NC(C)=O)cc(C)c(O)c1C(=O)O)[C@H]1O[C@](CC)([C@H]2CC[C@](O)(CC)[C@H](C)O2)C[C@@H]1C", "values": [
      {"measurement": "logP", "setting": "[1]", "result": 1.04},
      {"measurement": "Activity", "setting": "[4]", "result": 0},
      {"measurement": "pKa", "setting": "[3]", "result": 4.3}
    ]},
    {"compound": "CC[C@@H](C(=O)[C@@H](C)[C@@H](O)[C@H](C)CCc1c(N)cc(C)c(O)c1C(=O)O)[C@H]1O[C@](CC)([C@H]2CC[C@](O)(CC)[C@H](C)O2)C[C@@H]1C", "note": "[AMINOLASALOCID]", "values": [
      {"measurement": "logP", "setting": "[1]", "result": 0.28},
      {"measurement": "Activity", "setting": "[4]", "result": 0},
      {"measurement": "pKa", "setting": "[3]", "result": 6}
    ]},
    {"compound": "CC[C@@H](C(=O)[C@@H](C)[C@@H](O)[C@H](C)CCc1c(Cl)cc(C)c(O)c1C(=O)O)[C@H]1O[C@](CC)([C@H]2CC[C@](O)(CC)[C@H](C)O2)C[C@@H]1C", "note": "[CHLOROLASALOCID]", "values": [
      {"measurement": "logP", "setting": "[1]", "result": 3.12},
      {"measurement": "Activity", "setting": "[2]", "result": 1},
      {"measurement": "pKa", "setting": "[3]", "result": 4}
    ]}
  ]
}
